Results taken from patent US5602141A, “Camptothecin derivatives and process for their preparation” (Pharmacia & Upjohn S.P.A., priority 1994, dated 1997).

Columns and labels:
[1] = tested on: Topoisomerase I; details: Wani et al. 1987; Hsiang et al. 1989; cited from earlier work
[2] = Slichenmyer et al. 1993; cited from earlier work
[3] = tested on: L1210 murine leukemia cells; experiment: Method (a): cytotoxic activity on L1210 murine leukemia cells, 48 h exposure, Coulter Counter; type: cell-based; details: Mus musculus, 48 h at 37° C., mean of 3 different experiments, read-out: IC50 (dose causing 50% inhibition of cell growth relative to untreated controls)
Protocol: Method (a): Evaluation of Cytotoxic Activity
L1210 murine leukemia cells were grown in vitro as a stationary suspension in RPMI 1640 medium supplemented with 10% fetal calf serum, 2 mM L-glutamine, 10 μM B-mercaptoethanol, 100 UI/ml penicillin and 100 μg streptomycin. For assaying the cytotoxic activity, exponentialily growing cells were seeded at the concentration of 1×10^5 cells/ml and exposed to graded doses of the compounds under evaluation for 48 h at 37° C. in an humidified atmosphere of 5% CO2. The number of surviving cells was determined with a Coulter Counter; results are expressed as IC50 (dose causing 50% inhibition of cell growth in treated cultures relative to untreated controls after 48 h treatment).
In this assay, 9-(iminomethyl-amino)-camptothecin (internal code FCE 28536) and 9-(dimethylamino-methyleneamino)-camptothecin (internal code FCE 29006) were tested and the obtained results, which represent the mean of 3 different experiments, are reported on Table 2 below.

[4] = tested on: L1210 murine leukemia; experiment: Method (b): antitumor (antileukemic) activity, L1210 murine leukemia implanted ip into CD2F1 mice, median survival time; type: in vivo; details: 24 h after tumor cells implant (day 1)
Protocol: Method (b): Evaluation of Antitumor Activity
L1210 murine leukemia was maintained in DBA2 mice by weekly ip transplants of 10^5 cells/mouse. For assaying the antileukemic activity, […] were implanted ip into CD2F1 mice; graded doses of the compounds under evaluation were administered ip 24 h after tumor cells implant on day 1 controls receiving vehicle alone.
The activity of the drugs was determined evaluating the median survival time (MST) of each group of mice.
The obtained results, expressed as % T/C, are reported on Table 3 below.

| SMILES | antitumor activity by the inhibition of Topoisomerase I [1] | solubility in aqueous solutions [2] | IC50 [3] [nM] | % T/C (MST treated mice/MST control mice × 100) ([4]; 5 mg/kg ip) | % T/C (MST treated mice/MST control mice × 100) ([4]; 10 mg/kg ip) [%] | % T/C (MST treated mice/MST control mice × 100) ([4]; 15 mg/kg ip) [%] |
| --- | --- | --- | --- | --- | --- | --- |
| CC[C@@]1(O)C(=O)OCc2c1cc1n(c2=O)Cc2cc3c(N)cccc3nc2-1 [9-amino camptothecin] | potent antitumor activity by the inhibition of Topoisomerase I | low solubility in aqueous solutions |  |  |  |  |
| CC[C@@]1(O)C(=O)OCc2c1cc1n(c2=O)Cc2cc3ccccc3nc2-1 [Camptothecin, camptothecin] | potent antitumor activity by the inhibition of Topoisomerase I | low solubility in aqueous solutions |  |  |  |  |
| CC[C@@]1(O)C(=O)OCc2c1cc1n(c2=O)Cc2cc3c(NC=N)cccc3nc2-1 [FCE 28536, 9-(iminomethyl-amino)-camptothecin] |  |  | 82 | 150-163% | 188 |  |
| CC[C@@]1(O)C(=O)OCc2c1cc1n(c2=O)Cc2cc3c(N=CN(C)C)cccc3nc2-1 [FCE 29006, 9-(dimethylamino-methyleneamino)-camptothecin] |  |  | 120 | 150% | 163 | 175 |
